# Results as given in PubChem BioAssay (NCI).
#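 Each compound was tested at five concentrations against cells in 96-well plates for 48 hours. The concentration for full growth arrest is given as TGI.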
# Experiments:
# Experiment in all cases: NCI anticancer screen, dose series, 48 h
# HCT-15 colon = system: HCT-15 colon
# KM12 colon = system: KM12 colon
# UO-31 renal = system: UO-31 renal
# MDA-MB-231 breast = system: MDA-MB-231 breast
# A498 renal = system: A498 renal
# SK-MEL-5 melanoma = system: SK-MEL-5 melanoma
# HL-60(TB) leukemia = system: HL-60(TB) leukemia
# HCC-2998 colon = system: HCC-2998 colon
# IGROV1 ovarian = system: IGROV1 ovarian
# OVCAR-8 ovarian = system: OVCAR-8 ovarian
# COLO 205 colon = system: COLO 205 colon
# M14 melanoma = system: M14 melanoma
# RXF 393 renal = system: RXF 393 renal
# OVCAR-4 ovarian = system: OVCAR-4 ovarian
# K-562 leukemia = system: K-562 leukemia
# EKVX NSCLC = system: EKVX NSCLC
# MDA-N = system: MDA-N
# MDA-MB-435 = system: MDA-MB-435
# SK-MEL-2 melanoma = system: SK-MEL-2 melanoma
# T-47D breast = system: T-47D breast
# HCT-116 colon = system: HCT-116 colon
# SNB-19 CNS = system: SNB-19 CNS
# DU-145 prostate = system: DU-145 prostate
# MOLT-4 leukemia = system: MOLT-4 leukemia
# UACC-257 melanoma = system: UACC-257 melanoma
# SK-MEL-28 melanoma = system: SK-MEL-28 melanoma
# SF-295 CNS = system: SF-295 CNS
# NCI/ADR-RES ovarian = system: NCI/ADR-RES ovarian
# SNB-75 CNS = system: SNB-75 CNS
# 786-0 renal = system: 786-0 renal
# NCI-H226 lung = system: NCI-H226 lung
# RPMI-8226 leukemia = system: RPMI-8226 leukemia
# SN12C renal = system: SN12C renal
# OVCAR-3 ovarian = system: OVCAR-3 ovarian
# LOX IMVI melanoma = system: LOX IMVI melanoma
# NCI-H522 lung = system: NCI-H522 lung
# SK-OV-3 ovarian = system: SK-OV-3 ovarian
# TK-10 renal = system: TK-10 renal
# PC-3 prostate = system: PC-3 prostate
# MALME-3M melanoma = system: MALME-3M melanoma
# SF-268 CNS = system: SF-268 CNS
# U251 CNS = system: U251 CNS
# HT29 colon = system: HT29 colon
# CAKI-1 renal = system: CAKI-1 renal
# HOP-92 NSCLC = system: HOP-92 NSCLC
# OVCAR-5 ovarian = system: OVCAR-5 ovarian
# SW-620 colon = system: SW-620 colon
# MCF7 breast = system: MCF7 breast
# HOP-62 NSCLC = system: HOP-62 NSCLC
# ACHN renal = system: ACHN renal
# HS 578T breast = system: HS 578T breast
# CCRF-CEM leukemia = system: CCRF-CEM leukemia
# UACC-62 melanoma = system: UACC-62 melanoma
# NCI-H460 lung = system: NCI-H460 lung
# NCI-H23 lung = system: NCI-H23 lung
# SF-539 CNS = system: SF-539 CNS
# A549 NSCLC = system: A549 NSCLC
# SR leukemia = system: SR leukemia
compound,measurement,setting,value
COc1cccc(N(CN2CC=CC2=O)C(C)=O)c1,TGI,HCT-15 colon,> 100 µM
same,TGI,KM12 colon,> 100 µM
same,TGI,UO-31 renal,> 100 µM
same,TGI,MDA-MB-231 breast,> 100 µM
same,TGI,A498 renal,> 100 µM
same,TGI,SK-MEL-5 melanoma,> 100 µM
same,TGI,HL-60(TB) leukemia,> 100 µM
same,TGI,HCC-2998 colon,> 100 µM
same,TGI,IGROV1 ovarian,> 100 µM
same,TGI,OVCAR-8 ovarian,> 100 µM
same,TGI,COLO 205 colon,> 100 µM
same,TGI,M14 melanoma,> 100 µM
same,TGI,RXF 393 renal,> 100 µM
same,TGI,OVCAR-4 ovarian,> 100 µM
same,TGI,K-562 leukemia,> 100 µM
same,TGI,EKVX NSCLC,> 100 µM
same,TGI,MDA-N,> 100 µM
same,TGI,MDA-MB-435,> 100 µM
same,TGI,SK-MEL-2 melanoma,> 100 µM
same,TGI,T-47D breast,> 100 µM
same,TGI,HCT-116 colon,> 100 µM
same,TGI,SNB-19 CNS,> 100 µM
same,TGI,DU-145 prostate,> 100 µM
same,TGI,MOLT-4 leukemia,> 100 µM
same,TGI,UACC-257 melanoma,> 100 µM
same,TGI,SK-MEL-28 melanoma,> 100 µM
same,TGI,SF-295 CNS,> 100 µM
same,TGI,NCI/ADR-RES ovarian,> 100 µM
same,TGI,SNB-75 CNS,> 100 µM
same,TGI,786-0 renal,> 100 µM
same,TGI,NCI-H226 lung,> 100 µM
same,TGI,RPMI-8226 leukemia,> 100 µM
same,TGI,SN12C renal,> 100 µM
same,TGI,OVCAR-3 ovarian,> 100 µM
same,TGI,LOX IMVI melanoma,> 100 µM
same,TGI,NCI-H522 lung,> 100 µM
same,TGI,SK-OV-3 ovarian,> 100 µM
same,TGI,TK-10 renal,> 100 µM
same,TGI,PC-3 prostate,> 100 µM
same,TGI,MALME-3M melanoma,> 100 µM
same,TGI,SF-268 CNS,> 100 µM
same,TGI,U251 CNS,> 100 µM
same,TGI,HT29 colon,> 100 µM
same,TGI,CAKI-1 renal,> 100 µM
same,TGI,HOP-92 NSCLC,> 100 µM
same,TGI,OVCAR-5 ovarian,> 100 µM
same,TGI,SW-620 colon,> 100 µM
same,TGI,MCF7 breast,> 100 µM
same,TGI,HOP-62 NSCLC,> 100 µM
same,TGI,ACHN renal,> 100 µM
same,TGI,HS 578T breast,> 100 µM
same,TGI,CCRF-CEM leukemia,> 100 µM
same,TGI,UACC-62 melanoma,> 100 µM
same,TGI,NCI-H460 lung,> 100 µM
same,TGI,NCI-H23 lung,> 100 µM
same,TGI,SF-539 CNS,> 100 µM
same,TGI,A549 NSCLC,> 100 µM
C=C(C)C(=O)[C@@]12C(=O)[C@@H](C)CC[C@H]1[C@H](C)C[C@@H]2C=C(C)C,TGI,HCT-15 colon,73.5 µM
same,TGI,KM12 colon,56.4 µM
same,TGI,UO-31 renal,43 µM
same,TGI,MDA-MB-231 breast,51.3 µM
same,TGI,A498 renal,> 100 µM
same,TGI,SK-MEL-5 melanoma,45.1 µM
same,TGI,HCC-2998 colon,28 µM
same,TGI,IGROV1 ovarian,64.5 µM
same,TGI,OVCAR-8 ovarian,> 100 µM
same,TGI,COLO 205 colon,41.5 µM
same,TGI,M14 melanoma,> 100 µM
same,TGI,OVCAR-4 ovarian,> 100 µM
same,TGI,K-562 leukemia,> 100 µM
same,TGI,EKVX NSCLC,93.1 µM
same,TGI,MDA-N,59.1 µM
same,TGI,MDA-MB-435,54.3 µM
same,TGI,SK-MEL-2 melanoma,26.7 µM
same,TGI,HCT-116 colon,42.6 µM
same,TGI,SNB-19 CNS,32.5 µM
same,TGI,DU-145 prostate,> 100 µM
same,TGI,MOLT-4 leukemia,65.7 µM
same,TGI,UACC-257 melanoma,33.5 µM
same,TGI,SK-MEL-28 melanoma,> 100 µM
same,TGI,SF-295 CNS,> 100 µM
same,TGI,NCI/ADR-RES ovarian,83.5 µM
same,TGI,SNB-75 CNS,> 100 µM
same,TGI,786-0 renal,42.4 µM
same,TGI,NCI-H226 lung,> 100 µM
same,TGI,RPMI-8226 leukemia,> 100 µM
same,TGI,SN12C renal,40.7 µM
same,TGI,OVCAR-3 ovarian,38.5 µM
same,TGI,LOX IMVI melanoma,37 µM
same,TGI,NCI-H522 lung,27.7 µM
same,TGI,SK-OV-3 ovarian,> 100 µM
same,TGI,TK-10 renal,> 100 µM
same,TGI,PC-3 prostate,59.4 µM
same,TGI,MALME-3M melanoma,40.6 µM
same,TGI,SF-268 CNS,36 µM
same,TGI,U251 CNS,49.6 µM
same,TGI,HT29 colon,34.8 µM
same,TGI,CAKI-1 renal,99.5 µM
same,TGI,HOP-92 NSCLC,> 100 µM
same,TGI,OVCAR-5 ovarian,55.2 µM
same,TGI,SW-620 colon,44 µM
same,TGI,MCF7 breast,52.3 µM
same,TGI,HOP-62 NSCLC,> 100 µM
same,TGI,ACHN renal,25.6 µM
same,TGI,CCRF-CEM leukemia,> 100 µM
same,TGI,UACC-62 melanoma,> 100 µM
same,TGI,NCI-H23 lung,36.3 µM
same,TGI,SF-539 CNS,47.4 µM
same,TGI,A549 NSCLC,> 100 µM
O=C1Cc2c([nH]c3ccc(Br)cc23)-c2ccccc2N1,TGI,HCT-15 colon,> 100 µM
same,TGI,KM12 colon,> 100 µM
same,TGI,UO-31 renal,> 100 µM
same,TGI,MDA-MB-231 breast,> 100 µM
same,TGI,A498 renal,> 100 µM
same,TGI,SK-MEL-5 melanoma,> 100 µM
same,TGI,HL-60(TB) leukemia,> 53.8 µM
same,TGI,HCC-2998 colon,> 100 µM
same,TGI,IGROV1 ovarian,> 100 µM
same,TGI,OVCAR-8 ovarian,> 100 µM
same,TGI,COLO 205 colon,> 100 µM
same,TGI,M14 melanoma,> 100 µM
same,TGI,RXF 393 renal,> 100 µM
same,TGI,OVCAR-4 ovarian,> 100 µM
same,TGI,K-562 leukemia,> 100 µM
same,TGI,EKVX NSCLC,> 100 µM
same,TGI,MDA-N,> 100 µM
same,TGI,MDA-MB-435,> 100 µM
same,TGI,SK-MEL-2 melanoma,> 100 µM
same,TGI,T-47D breast,> 100 µM
same,TGI,SNB-19 CNS,> 100 µM
same,TGI,DU-145 prostate,> 100 µM
same,TGI,MOLT-4 leukemia,> 100 µM
same,TGI,UACC-257 melanoma,> 100 µM
same,TGI,SK-MEL-28 melanoma,> 100 µM
same,TGI,SF-295 CNS,> 100 µM
same,TGI,NCI/ADR-RES ovarian,> 100 µM
same,TGI,SNB-75 CNS,> 100 µM
same,TGI,786-0 renal,> 100 µM
same,TGI,NCI-H226 lung,> 100 µM
same,TGI,RPMI-8226 leukemia,> 100 µM
same,TGI,SN12C renal,> 100 µM
same,TGI,OVCAR-3 ovarian,> 100 µM
same,TGI,LOX IMVI melanoma,> 100 µM
same,TGI,NCI-H522 lung,> 100 µM
same,TGI,SK-OV-3 ovarian,> 100 µM
same,TGI,TK-10 renal,> 100 µM
same,TGI,PC-3 prostate,> 100 µM
same,TGI,MALME-3M melanoma,> 100 µM
same,TGI,SF-268 CNS,> 100 µM
same,TGI,U251 CNS,> 100 µM
same,TGI,HT29 colon,> 100 µM
same,TGI,CAKI-1 renal,> 100 µM
same,TGI,HOP-92 NSCLC,> 100 µM
same,TGI,OVCAR-5 ovarian,> 100 µM
same,TGI,HOP-62 NSCLC,> 100 µM
same,TGI,ACHN renal,> 100 µM
same,TGI,HS 578T breast,> 100 µM
same,TGI,CCRF-CEM leukemia,> 100 µM
same,TGI,UACC-62 melanoma,> 100 µM
same,TGI,NCI-H460 lung,> 100 µM
same,TGI,NCI-H23 lung,> 100 µM
same,TGI,SF-539 CNS,> 27.8 µM
same,TGI,SR leukemia,> 100 µM
same,TGI,A549 NSCLC,> 100 µM
Oc1[nH]c2ccccc2c1N=Nc1nc(-c2ccc(Cl)c(Cl)c2)cs1,TGI,HCT-15 colon,> 100 µM
same,TGI,KM12 colon,> 100 µM
same,TGI,UO-31 renal,> 100 µM
same,TGI,MDA-MB-231 breast,> 100 µM
same,TGI,SK-MEL-5 melanoma,> 100 µM
same,TGI,HL-60(TB) leukemia,0.718 µM
same,TGI,HCC-2998 colon,> 100 µM
same,TGI,IGROV1 ovarian,> 100 µM
same,TGI,OVCAR-8 ovarian,> 100 µM
same,TGI,COLO 205 colon,> 100 µM
same,TGI,M14 melanoma,> 100 µM
same,TGI,OVCAR-4 ovarian,> 100 µM
same,TGI,EKVX NSCLC,> 100 µM
same,TGI,MDA-N,> 100 µM
same,TGI,MDA-MB-435,> 100 µM
same,TGI,SK-MEL-2 melanoma,> 100 µM
same,TGI,T-47D breast,> 100 µM
same,TGI,HCT-116 colon,> 100 µM
same,TGI,SNB-19 CNS,> 100 µM
same,TGI,DU-145 prostate,> 100 µM
same,TGI,MOLT-4 leukemia,> 100 µM
same,TGI,UACC-257 melanoma,> 100 µM
same,TGI,SK-MEL-28 melanoma,> 100 µM
same,TGI,SF-295 CNS,> 100 µM
same,TGI,NCI/ADR-RES ovarian,> 100 µM
same,TGI,SNB-75 CNS,> 100 µM
same,TGI,786-0 renal,> 100 µM
same,TGI,NCI-H226 lung,> 100 µM
same,TGI,SN12C renal,> 100 µM
same,TGI,OVCAR-3 ovarian,> 100 µM
same,TGI,LOX IMVI melanoma,> 100 µM
same,TGI,SK-OV-3 ovarian,> 100 µM
same,TGI,TK-10 renal,> 100 µM
same,TGI,PC-3 prostate,> 100 µM
same,TGI,U251 CNS,> 100 µM
same,TGI,HT29 colon,> 100 µM
same,TGI,CAKI-1 renal,> 100 µM
same,TGI,HOP-92 NSCLC,> 100 µM
same,TGI,OVCAR-5 ovarian,> 100 µM
same,TGI,SW-620 colon,> 100 µM
same,TGI,MCF7 breast,> 100 µM
same,TGI,HOP-62 NSCLC,> 100 µM
same,TGI,ACHN renal,> 100 µM
same,TGI,NCI-H460 lung,> 100 µM
same,TGI,NCI-H23 lung,> 100 µM
same,TGI,SF-539 CNS,> 100 µM
same,TGI,A549 NSCLC,> 100 µM
